In patent US11958861B2, “Spirocyclic lactams as JAK2 V617F inhibitors” (Incyte Corporation, priority 2021, dated 2024) one finds IC50 data, which are given here for 6 compounds.

In experiment [1] the target is T1, catalytic domain (JH1, amino acids 826-1132) of human JAK2 (Homo sapiens, UniProt O60674).
T1 construct: catalytic domain (JH1, amino acids 826-1132) of human JAK2; purchased Carna Biosciences 08-445-20N; host or cells: baculovirus expression system
Put plainly: JAK2 LanthaScreen JH1 Binding Assay. The note with it: 2 hours at 25° C. Summed up:
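Reaction held 1.5 nM biotinylated FLAG-JAK2 JH1, 50 nM tracer and 0.5 nM streptavidin-Tb in pH 7.5 Tris buffer; 2 mM ATP defined nonspecific binding.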
(In general: Time-resolved FRET reads energy transfer from a long-lived donor to a nearby acceptor.)

The target in experiment [2] is T2, pseudo-kinase domain (JH2, amino-acids 536-812) of human Wild Type JAK2 (Homo sapiens, UniProt O60674, F794H/W659A/W777A).
T2 construct: pseudo-kinase domain (JH2, amino-acids 536-812 with 3 surface mutations W659A, W777A, F794H); purchased BPS Bioscience 79463; host or cells: baculovirus expression system
Put plainly: JAK2 LanthaScreen JH2-WT Binding Assay. Conditions: 1 hour at 25° C. Summed up:
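Compounds, serially diluted, were mixed with 0.145 nM JH2 domain, 50 nM tracer and 0.25 nM streptavidin-Tb cryptate, then incubated 1 hour at 25° C before LanthaScreen reading. Wells containing 2 mM ATP defined non-specific binding. Four-parameter dose-response curves gave IC50.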

The target of experiment [3] is T3, pseudo-kinase domain (JH2, amino-acids 536-812) of human V617F mutant JAK2 (Homo sapiens, UniProt O60674, F794H/V617F/W659A/W777A).
T3 construct: pseudo-kinase domain (JH2, amino-acids 536-812 with 3 surface mutations W659A, W777A, F794H); purchased BPS Bioscience 79498; host or cells: baculovirus expression system
Put plainly: JAK2 LanthaScreen JH2-V617F Binding Assay. The note with it: 1 hour at 25° C. In a few lines:
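Binding was measured as TR-FRET displacement of 50 nM tracer from 0.26 nM biotinylated His-Avi protein, incubated one hour at 25° C; IC50 from a four-parameter fit.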

Experiment [4] has as its target T4, catalytic domain (JH1, amino acids 808-1132) of human JAK2 (Homo sapiens, UniProt O60674).
T4 construct: catalytic domain (JH1, amino acids 808-1132) of human JAK2; His (N); purchased BPS Bioscience 40450; host or cells: baculovirus expression system
In words: JAK2 HTRF Enzyme Activity Assay. In kind it is biochemical. The note with it: ATP 30 μM, read-out: ENZ 30UMATP. In a few lines: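 IC50 values come from a four-parameter fit of HTRF signal (Eu-PY20 antibody/streptavidin-APC, EDTA-quenched). Reaction: 0.015 nM N-His JAK2 catalytic domain (baculovirus), 500 nM biotin-peptide, 30 μM or 1 mM ATP, Tris pH 7.5 buffer, 60 min, 25° C.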

Each structure is given as a SMILES string. Where a name gives a salt, the structure may show the parent alone.

T1 sequence (O60674 826-1132): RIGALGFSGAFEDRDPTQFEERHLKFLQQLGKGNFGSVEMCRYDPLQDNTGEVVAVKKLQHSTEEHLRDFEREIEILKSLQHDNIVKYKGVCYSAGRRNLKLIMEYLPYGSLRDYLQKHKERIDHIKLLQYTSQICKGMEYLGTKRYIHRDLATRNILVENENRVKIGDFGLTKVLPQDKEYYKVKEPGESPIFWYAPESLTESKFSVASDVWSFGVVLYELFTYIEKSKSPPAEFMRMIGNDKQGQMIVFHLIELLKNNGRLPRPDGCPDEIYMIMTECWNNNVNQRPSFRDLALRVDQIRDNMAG
T3 sequence (O60674 536-812 V617F/W659A/W777A/F794H): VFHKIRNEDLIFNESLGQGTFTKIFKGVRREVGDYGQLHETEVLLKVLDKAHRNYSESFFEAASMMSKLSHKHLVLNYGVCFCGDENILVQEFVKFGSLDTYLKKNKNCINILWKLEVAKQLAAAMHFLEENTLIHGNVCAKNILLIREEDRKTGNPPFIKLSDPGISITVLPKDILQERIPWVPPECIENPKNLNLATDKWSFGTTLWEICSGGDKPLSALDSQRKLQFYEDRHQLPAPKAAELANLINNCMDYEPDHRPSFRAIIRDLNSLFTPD
T2 sequence (O60674 536-812 W659A/W777A/F794H): as the sequence (O60674 536-812 V617F/W659A/W777A/F794H) above, with F82V counted along it
T4 sequence (O60674 808-1132): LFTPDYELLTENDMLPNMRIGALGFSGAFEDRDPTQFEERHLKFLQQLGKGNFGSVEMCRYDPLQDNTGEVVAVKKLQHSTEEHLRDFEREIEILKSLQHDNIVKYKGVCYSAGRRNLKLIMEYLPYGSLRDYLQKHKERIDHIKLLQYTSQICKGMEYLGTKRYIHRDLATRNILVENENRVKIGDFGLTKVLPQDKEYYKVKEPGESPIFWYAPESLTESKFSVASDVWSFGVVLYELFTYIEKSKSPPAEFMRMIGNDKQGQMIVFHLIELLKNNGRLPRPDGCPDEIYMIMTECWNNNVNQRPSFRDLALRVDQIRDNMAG

`[2H]C([2H])([2H])n1ncc2cc(-c3c(-c4cnn(C)c4)[nH]c4ncc5c(c34)C3(CC4(CCN(C(=O)OC)CC4)C3)C(=O)N5C)ccc21` [Example 58, Methyl 6-methyl-2-(1-methyl-1H-pyrazol-4-yl)-1-(1-(methyl-d3)-1H-indazol-5-yl)-7-oxo-6,7-dihydro-3H-dispiro[dipyrrolo[2,3-b:3′,2′-d]pyridine-8,1′-cyclobutane-3′,4″-piperidine]-1″-carboxylate, trifluoroacetate salt]: the IC50 in experiment [1] is 1250 to 2500 nM; in experiment [2] it was no more than 100 nM; in experiment [3] it was no more than 100 nM; in experiment [4], 1250 to 2500 nM.
For `CCCC(=O)N1CCC2(CC1)CC1(C2)C(=O)N(C)c2cnc3[nH]c(-c4cnn(C)c4)c(-c4ccc5c(cnn5C)c4)c3c21` [Example 59, 1″-Butyryl-6-methyl-1-(1-methyl-1H-indazol-5-yl)-2-(1-methyl-1H-pyrazol-4-yl)-3,6-dihydro-7H-dispiro[dipyrrolo[2,3-b:3′,2′-d]pyridine-8,1′-cyclobutane-3′,4″-piperidin]-7-one, trifluoroacetate salt], the IC50 is 1250 to 2500 nM in experiment [1], no more than 100 nM in experiment [2], no more than 100 nM in experiment [3] and 1250 to 2500 nM in experiment [4].
For `CN(C)C(=O)N1CCC2(CC1)CC1(C2)C(=O)N(C)c2cnc3[nH]c(-c4cnn(C)c4)c(-c4ccc5c(cnn5C)c4)c3c21` [Example 60, N,N,6-Trimethyl-1-(1-methyl-1H-indazol-5-yl)-2-(1-methyl-1H-pyrazol-4-yl)-7-oxo-6,7-dihydro-3H-dispiro[dipyrrolo[2,3-b:3′,2′-d]pyridine-8,1′-cyclobutane-3′,4″-piperidine]-1″-carboxamide, trifluoroacetate salt], the IC50 in experiment [1] is 1250 to 2500 nM; in experiment [2], no more than 100 nM; in experiment [3], no more than 100 nM; in experiment [4], 1250 to 2500 nM.
Take `COC(=O)N1CCC2(CC1)CC1(C2)C(=O)N(C)c2cnc3[nH]c(-c4cnn(C)c4)c(-c4ccc5c(cnn5C)c4)c3c21` [Example 61, Methyl 6-methyl-1-(1-methyl-1H-indazol-5-yl)-2-(1-methyl-1H-pyrazol-4-yl)-7-oxo-6,7-dihydro-3H-dispiro[dipyrrolo[2,3-b:3′,2′-d]pyridine-8,1′-cyclobutane-3′,4″-piperidine]-1″-carboxylate, trifluoroacetate salt]: the IC50 in experiment [1] is 500 to 1250 nM; in experiment [2], no more than 100 nM; in experiment [3], no more than 100 nM; in experiment [4], 500 to 1250 nM.
As to `COCCS(=O)(=O)N1CCC2(CC1)CC1(C2)C(=O)N(C)c2cnc3[nH]c(-c4cnn(C)c4)c(-c4ccccc4)c3c21` [Example 62, 1″-((2-Methoxyethyl)sulfonyl)-6-methyl-2-(1-methyl-1H-pyrazol-4-yl)-1-phenyl-3,6-dihydro-7H-dispiro[dipyrrolo[2,3-b:3′,2′-d]pyridine-8,1′-cyclobutane-3′,4″-piperidin]-7-one, trifluoroacetate salt], the IC50 in experiment [1] is greater than 2500 nM; in experiment [2], no more than 100 nM; in experiment [3], no more than 100 nM; in experiment [4] it was greater than 2500 nM.
For the compound `CCCC(=O)N1CCC2(CC1)CC1(C2)C(=O)N(C)c2cnc3[nH]c(-c4ccn(C)c4)c(-c4ccc5c(cnn5C)c4)c3c21` [Example 64, 1″-Butyryl-6-methyl-1-(1-methyl-1H-indazol-5-yl)-2-(1-methyl-1H-pyrrol-3-yl)-3,6-dihydro-7H-dispiro[dipyrrolo[2,3-b:3′,2′-d]pyridine-8,1cyclobutane-3′,4″-piperidin]-7-one, trifluoroacetate salt], the IC50 is 1250 to 2500 nM in experiment [1], no more than 100 nM in experiment [2], no more than 100 nM in experiment [3] and 1250 to 2500 nM in experiment [4].
